Measured values as given in patent publication US20250034208A1, “PEPTIDES AND PHARMACEUTICAL AND COSMETIC COMPOSITIONS CONTAINING THEM” (LABORATOIRES D'ANJOU, priority 2021, published 2025).
Bridges are numbered along the chain shown (N, C = ends). Where no end group is shown, it is not given here.

How the values were obtained:
[1] = system: freshly isolated human primary keratinocytes; test: Wound closure test of a sheet of primary keratinocytes; assay type: cell-based; conditions: for wound closure activity, ranking of peptides: increasing order LRIRFTYK, CSGLRIRFTYKSGC, CLRIRFTYKC, Example 11, FIG. 10
Excerpt: (§1) • the HT1080 line: Cells originating from epithelial lines, tools commonly used for cell adhesion studies, were first used. The cells of the HT1080 line (fibrosarcoma, Human), American Type Culture Collection CCL-121. • primary human keratinocytes: For the cell viability and migration test, freshly isolated normal human keratinocytes were used. Human keratinocytes were obtained from preputial biopsy (surgical waste, tissue bank and cells, Edouard Herriot Hospital). The culture medium used during the experiments was the medium defined for KGM-Gold keratinocytes sold by Lonza Bioscience containing 0.15 mM of CaCl2, pH 7.2 to 7.4. The keratinocytes were obtained according to the Boyce and Ham technique (Cultivation, frozen storage, and clonal growth of normal human epidermal keratinocytes in serum free-media, Tiss Cuit. Meth. 1985, 9:83-93). The pieces of skin, after rinsing in PBS buffer containing antibiotics, were freed of the fat tissue and cut into 3 mm^2 pieces, then placed in a sterile solution of 0.25% trypsin in PBS for 16 h at 4° C. The dermis/epidermis separation was carried out in a Petri dish containing culture medium in order to stop the action of trypsin. The epidermis fragments were sucked in and discharged several times to detach the free basal cells. After centrifuging, 3.10^4 live cells were seeded per cm2 on dishes for tissue cultivation (Corning, Polylabo, France). The keratinocytes were cultured at 37° C. in a CO2 incubator (5% CO2, 95% air and 98% moisture). The sub-culture took place when the cells reached the sub-confluence. The sheet of cells was then rinsed with PBS, then covered with a solution of Trypsin-EDTA (0.05-0.02%). After a short incubation at 37° C., the cells were detached, counted, and re-seeded.
6-well plates (Costar) are covered with collagen I for 16 h then rinsed with PBS. Three inserts with two Ibidi-sterile wells (Ibidi, reference: 80209) are deposited in each of the wells. 2×10^4 keratinocytes are deposited in each insert well in KBM-Gold. After two hours of incubation in humid air at 37° C., composed of 5% CO2 and 95% atmospheric air, the culture medium is sucked out and the inserts removed. KBM-Gold with no supplement is added to each of the wells of the plate. The cells are thus: not treated (medium alone), treated with supplement-free KBM-Gold containing the peptides studied (25 μg/ml), or treated with supplement-free KBM-Gold containing EGF at 10 ng/ml (Peprotech). The cultures are stopped at 12 h and 24 h, the media are sucked out, and the cells are fixed with 2% PBS-Paraformaldehyde for 20 minutes. After the fixator has been sucked out, the cells are colored with a 0.1% solution of Crystal Violet in ultrapure water for 30 minutes. The Crystal Violet is removed and the wells are rinsed with water. Image acquisitions are carried out and the injuries are quantified using Adobe Photoshop CS3 software.

HT1080 cells = test: Cell adhesion test (colorimetric, crystal violet) on immobilized peptide; assay type: cell-based, Human; conditions: for adhesion response dependent on the amount of peptide immobilized in the wells: K substitution variants of LRIRATYG, Example 6, FIG. 5
Excerpt: as §1, with “After centrifuging, 3.10^4 live cells were seeded per cm2 on dishes for tissue cultivation (Corning, Polylabo, France). The keratinocytes were cultured at 37° C. in a CO2 incubator (5% CO2, 95% air and 98% moisture). The sub-culture took place when the cells reached the sub-confluence. The sheet of cells was then rinsed with PBS, then covered with a solution of Trypsin-EDTA (0.05-0.02%).” left out, “re-seeded. […]” for “re-seeded.”
After seeding the cells, the plates were placed in an incubator at 37° C. in a 5% CO2 atmosphere. […] The absorbance was read at 570 nm using a plate reader (Victor^2 V Spectrophotometer, Perkin Elmer). […] The negative control value is the average of the absorbance of the three control wells (BSA). This was subtracted from each of the absorbance values obtained for the experimental points. The averages of the absorbance values for each of the conditions were calculated and were presented in the form of a curve, with on the y-axis, the average values of the absorbance, and on the x-axis, the various quantities of substrate immobilized in the wells (in μg or mole). […]

[2] = system: keratinocytes of the epidermis and other epithelial cells; conditions: prior patent EP1784423 of the Applicant; cited from earlier work
[3] = 25 μg/ml peptide, 12 and 24 h, Example 5, FIG. 4

For “CLRIRFTYKC (disulfide 1-10 (inferred); not fully specified)”, the “wound closure activity, ranking of peptides” value [1] was “most significant activities”.

With CSGLRIRATYGSGC (Other sequences) the “adhesion induction activity relative to the LRIRATYG motif” value (HT1080 cells; low concentration of immobilized peptide, Examples 2 and 3, FIG. 1 and 2) was “activity being doubled at a low concentration”, the “wound closure activity compared to TALRIRATYGEY and LRIRATYG” value [1, 3] was “significantly greater activity at 12 and 24 h” and the “wound closure activity compared with the other peptides” value ([1]; 25 μg/ml peptide, 12 h and 24 h, Example 4, FIG. 3) was “significantly greater than that of the other peptides”. For the same sequence, the “wound closure compared with negative control” value ([1]; 25 μg/ml peptide, 12 h and/or 24 h post-injury, negative control culture medium alone, Example 4, FIG. 3) was “very significantly greater than that of the negative control” and the “wound closure activity compared with negative control” value ([1]; 25 μg/ml peptide, time not given, Example 5, FIG. 4) was “significantly greater than that of the negative control”.

In the case of “CSGLRIRFTYKSGC (disulfide 1-14 (inferred); not fully specified)”, the “wound closure activity, ranking of peptides” value [1] was “most significant activities”.

With LRIRATYK (Other sequences) the “adhesion response dependent on the amount of peptide immobilized in the wells” value (HT1080 cells) was “decreases”.

In the case of LRIRKTYG (Other sequences), the “adhesion response dependent on the amount of peptide immobilized in the wells” value (HT1080 cells) was “disappears”.

In the case of “TALRIRATYGEY (Other sequences) [reference compound]”, the “wound closure activity, LRIRATYG and TALRIRATYGEY compared between them” value [1, 3] is listed as “equivalent activity between them”, the “wound closure activity compared with negative control” value ([1]; 25 μg/ml peptide, 24 h, negative control culture medium alone, Example 5, FIG. 4) is listed as “significantly greater than that of the negative control” and the “induction of cell adhesion” value [2] is listed as “specifically induces the adhesion”.
